The values below come from US5567725A, “Substituted cyclohexanol esters, their use for treating diseases, and pharmaceutical preparations” (Hoechst Aktiengesellschaft, priority 1994, dated 1996).

pIC50: −log10 of the molar value.

The target of one experiment is T1, glucose-6-phosphatase system (Rattus norvegicus, UniProt F7EWB7).
T1 construct: from tissue; host or cells: liver microsomes, male Wistar rats
T1 sequence (F7EWB7 1-429): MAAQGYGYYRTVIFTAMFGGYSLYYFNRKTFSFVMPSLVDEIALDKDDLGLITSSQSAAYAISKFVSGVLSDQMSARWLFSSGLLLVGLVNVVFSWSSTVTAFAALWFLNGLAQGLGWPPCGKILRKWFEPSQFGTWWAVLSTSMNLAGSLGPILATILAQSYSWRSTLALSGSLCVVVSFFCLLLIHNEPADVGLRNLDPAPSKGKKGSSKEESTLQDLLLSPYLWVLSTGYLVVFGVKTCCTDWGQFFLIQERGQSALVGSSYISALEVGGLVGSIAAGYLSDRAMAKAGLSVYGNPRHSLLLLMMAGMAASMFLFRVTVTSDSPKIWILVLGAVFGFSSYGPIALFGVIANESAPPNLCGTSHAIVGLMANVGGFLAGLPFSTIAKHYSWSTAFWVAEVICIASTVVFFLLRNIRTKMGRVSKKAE
Put plainly: enzyme test using liver microsomes: phosphate liberated from glucose-6-phosphate. It is filed as biochemical, male Wistar rats. As to conditions: rat liver microsome fraction; glucose-6-phosphate 1 mmol/l; HEPES pH 7.0; room temperature, 20 minutes. How it is done:
The effect of the novel compounds on the glucose-6-phosphatase system was investigated in an enzyme test using liver microsomes.
0.1 ml of test mixture contained glucose-6-phosphate (1mmol/l), the test substance, 0.1 mg of microsome fraction and 100 mmol/l HEPES buffer (4-(2-hydroxyethyl)piperazine-1-ethanesulfonic acid), pH 7.0. The reaction was started by adding the enzyme. After proceeding at room temperature for 20 minutes, the reaction was stopped by adding 0.2 ml of phosphate reagent. The sample was incubated at 37° C. for 30 minutes and the absorption (A) of the blue color was then measured at 570 nm.
In the case of `O=C(/C=C(/c1ccccc1)n1cnc2ccccc21)O[C@@H]1C[C@](OC[C@@H]2C[C@@H]2c2ccc(Cl)cc2)(c2nnn[nH]2)C[C@@H](O)[C@H]1O` [Compound 19], the pIC50 was 6.10.

As to `O=C(/C=C(/c1ccccc1)n1cnc2ccccc21)O[C@@H]1C[C@](OC[C@@H]2C[C@@H]2c2ccc(Cl)cc2)(C(=O)NS(=O)(=O)c2ccc3ccccc3c2)C[C@@H](O)[C@H]1O` [Compound 9], the pIC50 is 6.52. `CS(=O)(=O)NC(=O)C1(OCC2CC2c2ccc(Cl)cc2)CC(O)C(O)C(OC(=O)C=C(c2ccccc2)n2cnc3ccccc32)C1` (stereo not shown) [Compound 4]: the pIC50 is 7.70.

Another experiment concerns glucose-6-phosphatase.
Test: not given
Particulars: literature statement; cited from earlier work.
For `S=C=Nc1ccccc1C=Cc1ccccc1N=C=S` [2,2'-diisothiocyanatostilbene], the “inhibition of glucose-6-phosphatase (in words)” value (shortened to “inhibition”) is “non-specific inhibitors”.

As to `CC(=O)Oc1ccccc1C=Cc1ccccc1N=C=S` [2-isothiocyanato-2'-acetoxystilbene], the “inhibition” value was “non-specific inhibitors”. For `O=C(O)c1cc(SSc2ccc([N+](=O)[O-])c(C(=O)O)c2)ccc1[N+](=O)[O-]` [5,5'-dithiobis-2-nitrobenzoic acid], the “inhibition” value is reported as “non-specific inhibitors”. `O=C(CCc1ccc(O)cc1)c1c(O)cc(O)cc1O[C@@H]1O[C@H](CO)[C@@H](O)[C@H](O)[C@H]1O` [phlorrhizin]: the “inhibition” value is “non-specific inhibitors”.

For orientation: pIC50 means the IC50 on a negative log10 scale, so that one unit is a factor of ten.
